Common to all, as to format: cell-based
The test system of test [1] is Chrysosporium keratinophilum. Briefly: agar plate disc-diffusion, antifungal activity. The settings on record: Sabouraud's dextrose agar, 72 h. How it is done: (§1) The agar plate disc-diffusion method was applied. […] The discs were then placed onto the surface of agar plates (nutrient agar for bacteria and Sabouraud's dextrose agar for fungi) seeded with the test organism. Each plate contained 15 mL of the agar medium, previously seeded with 0.2 mL of the broth culture of each organism pregrown for 18 hours. The plates were incubated at 37° C. for 48 h, and 72 h for fungi. The inhibition zones were measured in mm. Discs impregnated with DMSO were used as a control, and its inhibition zone was subtracted from the tested compound actual inhibition zone.

Another test deals with Aspergillus flavus. Briefly: agar plate disc-diffusion, antifungal activity. The settings on record: Sabouraud's dextrose agar, 72 h. How it is done:
as §1

Another test has as its system Escherichia coli. Briefly: agar plate disc-diffusion, antibacterial activity. Particulars: nutrient agar, 37° C., 48 h. How it is done:
as §1

The subject of another test is Bacillus cereus. Briefly: agar plate disc-diffusion, antibacterial activity. Particulars: nutrient agar, 37° C., 48 h. How it is done:
as §1

The subject of the next test is Staphylococcus aureus. Briefly: agar plate disc-diffusion, antibacterial activity. The settings on record: nutrient agar, 37° C., 48 h. How it is done: as §1
The subject of the next test is Pseudomonas aeruginosa. Kind of test: agar plate disc-diffusion, antibacterial activity. The settings on record: nutrient agar, 37° C., 48 h. How it is done:
as §1

The subject of a further test is different microbes. Briefly: antimicrobial activity screening, overall statement. The settings on record: against different microbes (bacteria and fungi of Tables 1 and 2). How it is done: The agar plate disc-diffusion method was applied. Sterilized filter papers (6 mm in diameter) were wetted with 10 μL of a solution of 2-[(1,3-benzothiazol-2-yl)imino]-5,5-diphenylimidazolidin-4-one (3) to be tested, containing 10 mg/mL in DMSO, and the discs were allowed to air dry. The discs were then placed onto the surface of agar plates (nutrient agar for bacteria and Sabouraud's dextrose agar for fungi) seeded with the test organism. Each plate contained 15 mL of the agar medium, previously seeded with 0.2 mL of the broth culture of each organism pregrown for 18 hours. The plates were incubated at 37° C. for 48 h, and 72 h for fungi. The inhibition zones were measured in mm. Discs impregnated with DMSO were used as a control, and its inhibition zone was subtracted from the tested compound actual inhibition zone.

Where [2] appears, read: A = concentration of comp. = 10,000 μL.
[3] abbreviates: B = concentration of comp. = 30,000 μL.
[4] abbreviates: C = concentration of comp. = 50,000 μL.
[5] abbreviates: A = concentration of comp. = 10 mg/mL.

Each structure is given as a SMILES string.

Turning to `O=C(O)c1cn(C2CC2)c2cc(N3CCNCC3)c(F)cc2c1=O` [Cip., ciprofloxacin, reference compound], the inhibition zone in test [1] (setting [2]) was determined as 29 mm; in test [1] (setting [3]) it was 30 mm; in test [1] (setting [4]), 53 mm; with Aspergillus flavus (setting [5]), 29 mm; in the test with Aspergillus flavus (setting [3]), 30 mm; in the test with Aspergillus flavus (setting [4]) it was 42 mm. Besides, the inhibition zone with Escherichia coli (A =) amounted to 30 mm; in the test on Escherichia coli (setting [3]), 39 mm; with Escherichia coli (setting [4]) it was 60 mm; in the test with Bacillus cereus (setting [2]) it was 29 mm; with Bacillus cereus (setting [3]), 30 mm; with Bacillus cereus (setting [4]) it was 42 mm. The inhibition zone came out at 43 mm with Staphylococcus aureus (setting [2]); 44 mm with Staphylococcus aureus (setting [3]); 53 mm in the test with Staphylococcus aureus (setting [4]); 29 mm in the test on Pseudomonas aeruginosa (setting [2]); 30 mm in the test with Pseudomonas aeruginosa (setting [3]); 53 mm in the test on Pseudomonas aeruginosa (setting [4]).
Turning to `O=C1N/C(=N/c2nc3ccccc3s2)NC1(c1ccccc1)c1ccccc1` [Compound 3, 2-[(1,3-benzothiazol-2-yl)imino]-5,5-diphenylimidazolidin-4-one], the inhibition zone in test [1] (setting [2]) came out at 26 mm; in test [1] (setting [3]) it was 29 mm; in test [1] (setting [4]) it was 45 mm; with Aspergillus flavus (setting [5]), 21 mm; with Aspergillus flavus (setting [3]), 25 mm; in the test on Aspergillus flavus (setting [4]) it was 31 mm. Further, the inhibition zone in the test with Escherichia coli (A =) amounted to 26 mm; in the test on Escherichia coli (setting [3]), 34 mm; with Escherichia coli (setting [4]) it was 50 mm; with Bacillus cereus (setting [2]) it was 20 mm; in the test on Bacillus cereus (setting [3]), 23 mm; in the test with Bacillus cereus (setting [4]), 35 mm. Moreover, the inhibition zone was determined as 19 mm with Staphylococcus aureus (setting [2]); 23 mm in the test with Staphylococcus aureus (setting [3]); 35 mm in the test on Staphylococcus aureus (setting [4]); 24 mm in the test with Pseudomonas aeruginosa (setting [2]); 28 mm in the test with Pseudomonas aeruginosa (setting [3]); 45 mm in the test on Pseudomonas aeruginosa (setting [4]). Further, the antimicrobial activities result in the test on different microbes is recorded as “excellent antimicrobial activities”.
